Test results published in EPA's ToxValDB 9.5.

Tested on: Mus musculus
[1] = reproduction developmental, oral, gavage, M, C57BL/6, generation: F1, F1: spleen: mean percent splenic CD4+CD25+Foxp3+ T cells
[2] = short-term, duration: 4 weeks, oral, gavage, M, TNF-alpha mRNA levels in liver (normalized to GAPDH)
[3] = short-term, duration: 4 days, dermal, F, BALB/c, body weight + thymus: thymus: absolute weight
[4] = short-term, duration: 10 days, oral, diet, M, C57BL/6, bone marrow: bone marrow: no. of CD19+ B-lymphoid cells + bone marrow: bone marrow: no. of early mature CD19+CD138-IgM+ B cells + bone …
[5] = short-term, duration: 10 days, oral, diet, M, C57BL/6, serum AH50 + serum C3 + serum CH50
[6] = short-term, duration: 10 days, oral, diet, M, C57BL/6, spleen: spleen: absolute weight + thymus: thymus: absolute weight
[7] = short-term, duration: 10 days, oral, diet, M, C57BL/6, spleen: spleen: relative weight + thymus: thymus: relative weight
[8] = short-term, duration: 13 days, oral, drinking water, F, C57BL/6, spleen: spleen CD8+ cells
[9] = short-term, duration: 14 days, oral, gavage, M, BALB/c, relative mRNA expression of IL-1beta in spleen + thymus: apoptosis in thymus cells
[10] = short-term, duration: 14 days, oral, gavage, M, BALB/c, relative mRNA expression of IL-1beta in thymus + spleen: apoptosis in spleen cells

With `O=C([O-])C(F)(F)C(F)(F)C(F)(F)C(F)(F)C(F)(F)C(F)(F)C(F)(F)F.[NH4+]` [Ammonium perfluorooctanoate] the LOEL (acute, duration: 1 days, injection, intraperitoneal, serum histamine content) was 1 mg/kg-day, the NOEL (developmental, duration: 9 days, oral, drinking water, F, C57BL/6, generation: F1, F1: IgM antibody titer (SRBC) + F1: spleen: spleen: relative weight + F1: thymus: thymus: relative weight) was 6.7 mg/L and the NOEL (developmental, duration: 16 days, oral, gavage, F, CD1, generation: F1, F1: spleen: spleen: relative weight (ovx)) was 5 mg/kg-day. It also gave an NOEL (reproduction developmental, oral, diet, M/F, BALB/c, generation: F1, F1: airway MCh sensitivity + F1: airway resistance (at 25 mg/mL methacholine) + F1: lung: BALF inflammatory cell counts: eosinophils + F1: …) of 4 ppm, an LOEL (reproduction developmental, oral, diet, M/F, BALB/c, generation: F1, F1: airway MCh sensitivity + F1: airway resistance (at 25 mg/mL methacholine) + F1: lung: BALF inflammatory cell counts: macrophages + F1: …) of 4 ppm and an NOEL (reproduction developmental, oral, gavage, F, C57BL/6, generation: F1, F1: mean serum anti-MBP) of 2 mg/kg-day. For the same compound, the NOEL (reproduction developmental, oral, gavage, F, C57BL/6, generation: F1, F1: mean serum anti-dsDNA + F1: spleen: mean percent splenic CD4+CD25+Foxp3+ T cells) was 0.2 mg/kg-day, the LOEL (reproduction developmental, oral, gavage, F, C57BL/6, generation: F1, F1: mean serum anti-ssDNA + F1: spleen (CD4+CD25+): IL-10 levels) was 0.02 mg/kg-day and the LOEL (reproduction developmental, oral, gavage, F, C57BL/6, generation: F1, F1: spleen: mean percent splenic CD4+CD25+Foxp3+ T cells) was 2 mg/kg-day. The NOEL (reproduction developmental, oral, gavage, M, C57BL/6, generation: F1, F1: mean serum anti-dsDNA + F1: mean serum anti-MBP + F1: mean serum anti-ssDNA) was 2 mg/kg-day, the LOEL (reproduction developmental, oral, gavage, M, C57BL/6, generation: F1, F1: spleen (CD4+CD25+): IL-10 levels) was 0.02 mg/kg-day and the LOEL [1] was 2 mg/kg-day. For the same compound, the NOEL [1] was 0.2 mg/kg-day, the NOEL (short-term, duration: 3 weeks, oral, diet, M, C57BL/6, fold changes of proinflammatory cytokine genes in liver: IL-1b gene (relative to control) + fold changes of proinflammatory cytokine genes …) was 5 mg/kg-day and the LOEL (short-term, duration: 3 weeks, oral, diet, M, C57BL/6, fold changes of proinflammatory cytokine genes in liver: IP-10 gene (relative to control) + fold changes of proinflammatory cytokine genes …) was 5 mg/kg-day. The NOEL (short-term, duration: 3 weeks, oral, gavage, F, BALB/c, IgM antibody level (TNP 1:50)) was 20 mg/kg-day, the NOEL (short-term, duration: 4 weeks, oral, gavage, M, 129S4/SvlmJ, TNF-alpha mRNA levels in liver (normalized to GAPDH)) was 21.6 mg/kg-day and the LOEL [2] was 10.8 mg/kg-day. For the same compound, the NOEL [2] was 5.39 mg/kg-day, the NOEL (short-term, duration: 2 days, oral, diet, M, C57BL/6, spleen: spleen: absolute weight + thymus: thymus: absolute weight + thymus: total thymic DNA content) was 0.02% and the LOEL (short-term, duration: 2 days, oral, diet, M, C57BL/6, spleen: total splenic DNA content) was 0.02%. For the same compound, the NOEL (short-term, duration: 4 days, dermal, F, BALB/c, OVA-specific IgE) was 1.5%, the LOEL (short-term, duration: 4 days, dermal, F, BALB/c, PCA passive cutaneous anaphylaxis) was 10 mg/kg-day and the LOEL (short-term, duration: 4 days, dermal, F, BALB/c, blood serum: OVA-specific IgE + blood serum: total serum IgE + OVA-specific airway hyperreactivity (AUC) + spleen: spleen B220+ cells + …) was 1%. The NOEL (short-term, duration: 4 days, dermal, F, BALB/c, blood serum: OVA-specific IgE + blood serum: total serum IgE + OVA-specific airway hyperreactivity (AUC) + thymus: thymus cellularity + …) was 0.75%, the NOEL (short-term, duration: 4 days, dermal, F, BALB/c, blood serum: OVA-specific IgE + spleen: spleen B220+ cells + spleen: spleen: absolute weight + thymus: thymus: absolute weight + total serum…) was 0.5% and the LOEL (short-term, duration: 4 days, dermal, F, BALB/c, blood serum: OVA-specific IgE + thymus: thymus: absolute weight + total serum IgE) was 0.75%. For the same compound, the LOEL [3] was 1.5%, the NOEL [3] was 1% and the LOEL (short-term, duration: 4 days, dermal, F, BALB/c, spleen: spleen cellularity + spleen: spleen: absolute weight) was 0.5%. It also gave an LOEL (short-term, duration: 5 days, oral, diet, M, C57BL/6, spleen: spleen: absolute weight + spleen: total splenic DNA content + thymus: thymus: absolute weight + thymus: total thymic DNA content) of 0.02%, an LOEL (short-term, duration: 7 days, oral, diet, M, C57BL/6, blood serum: TNF-alpha levels) of 0.02% and an LOEL (short-term, duration: 7 days, oral, diet, M, C57BL/6, body weight + spleen: lymphocyte proliferation (ConA) + spleen: lymphocyte proliferation (LPS) + spleen: spleen CD19+ cells + spleen: spleen…) of 0.02%. It also gave an NOEL (short-term, duration: 7 days, oral, diet, M, C57BL/6, cell cycle of splenocytes: G0/G1 phase + cell cycle of splenocytes: G1/2 phase + cell cycle of splenocytes: G2/M phase) of 0.02%, an LOEL (short-term, duration: 7 days, oral, diet, M, C57BL/6, cell cycle of splenocytes: S phase + cell cycle of thymocytes: G0/G1 phase + cell cycle of thymocytes: G1/2 phase + cell cycle of thymocytes…) of 0.02% and an LOEL (short-term, duration: 7 days, oral, diet, M, C57BL/6, lymphocyte proliferation in response to ConA (1 day culture) + lymphocyte proliferation in response to ConA (2 day culture) + lymphocyte …) of 200 mg/kg-day. For the same compound, the NOEL (short-term, duration: 7 days, oral, diet, M, C57BL/6, spleen: splenocytes in G0/1 phase + splenocytes in G1/2 phase + splenocytes in G2/M phase) was 200 mg/kg-day, the LOEL (short-term, duration: 7 days, oral, diet, M, body weight + spleen: spleen CD19+ cells + spleen: spleen CD3+ cells + spleen: spleen cellularity + thymocyte G0/1 phase + thymocyte G1/2 …) was 0.02% and the NOEL (short-term, duration: 7 days, oral, diet, M, spleen: lymphocyte proliferation (ConA) + spleen: lymphocyte proliferation (LPS)) was 0.02%. It also gave an LOEL (short-term, duration: 7 days, oral, gavage, F, BALB/c, Peripheral blood phagocytosis (HEMA) + spleen: lymphocyte proliferation (ConA) + spleen: lymphocyte proliferation (LPS) + Splenic NK cell …) of 20 mg/kg-day, an NOEL (short-term, duration: 7 days, oral, gavage, F, BALB/c, spleen: spleen CD4+ cells + spleen: spleen CD49b+ cells + spleen: spleen CD8+ cells + spleen: spleen cellularity + spleen: spleen: relative …) of 20 mg/kg-day and an LOEL (short-term, duration: 10 days, oral, diet, M, C57BL/6, IgG1 antibody-secreting cells (HRBC) + IgG1 antibody level (HRBC 1:160) + IgG1 antibody level (HRBC 1:20) + IgG1 antibody level (HRBC 1:80…) of 0.02%. The NOEL (short-term, duration: 10 days, oral, diet, M, C57BL/6, IgG3 antibody-secreting cells (HRBC) + IgM antibody-secreting cells (HRBC) + IgM antibody level (HRBC 1:160)) was 0.02%, the LOEL (short-term, duration: 10 days, oral, diet, M, C57BL/6, blood serum: IL-6 levels + blood serum: IL-6 levels (+LPS in vivo) + blood serum: TNF-alpha levels (+LPS in vivo) + bone marrow: IL-6 levels…) was 0.02% and the NOEL (short-term, duration: 10 days, oral, diet, M, C57BL/6, blood serum: TNF-alpha levels + bone marrow: IL-6 levels + spleen: IL-6 levels) was 0.02%. The LOEL (short-term, duration: 10 days, oral, diet, M, C57BL/6, bone marrow: bone marrow cellularity + bone marrow: bone marrow: no. of Gr1+CD11b+ myeloid cells + bone marrow: bone marrow: no. of immature…) was 0.02%, the NOEL (short-term, duration: 10 days, oral, diet, M, C57BL/6, bone marrow: bone marrow cellularity + bone marrow: bone marrow: no. of Gr1+CD11b+ myeloid cells + spleen: spleen cellularity + spleen: …) was 0.002% and the LOEL [4] was 0.002%. It also gave an NOEL [4] of 0.001%, an NOEL (short-term, duration: 10 days, oral, diet, M, C57BL/6, intrahepatic immune cells: all leukocytes (CD45+) + intrahepatic immune cells: B cells (CD19+) + intrahepatic immune cells: CD138 (plasma …) of 0.002% and an LOEL (short-term, duration: 10 days, oral, diet, M, C57BL/6, intrahepatic immune cells: all leukocytes (CD45+) + intrahepatic immune cells: B cells (CD19+) + intrahepatic immune cells: cytotoxic T …) of 0.002%. For the same compound, the NOEL (short-term, duration: 10 days, oral, diet, M, C57BL/6, liver: IFN-gamma levels (+Con A in vivo) + liver: IL-4 levels (+Con A in vivo) + liver: TNF-alpha levels (+Con A in vivo)) was 0.002%, the LOEL (short-term, duration: 10 days, oral, diet, M, C57BL/6, liver: IFN-gamma levels + liver: IL-4 levels + liver: IL-6 levels + liver: IL-6 levels (+Con A in vivo) + liver: TNF-alpha levels) was 0.002% and the LOEL [5] was 0.02%. For the same compound, the NOEL [5] was 0.01%, the NOEL (short-term, duration: 10 days, oral, diet, M, C57BL/6, spleen: relative splenic DNA content) was 0.02% and the LOEL (short-term, duration: 10 days, oral, diet, M, C57BL/6, spleen: spleen CD19+ cells + spleen: spleen CD3+ cells + spleen: spleen CD4+ cells + spleen: spleen CD8+ cells + spleen: spleen: absolute …) was 0.02%. It also gave an LOEL (short-term, duration: 10 days, oral, diet, M, C57BL/6, spleen: spleen CD19+ cells + spleen: spleen CD4+ cells + spleen: spleen CD8+ cells + spleen: spleen cellularity + spleen: spleen NK1.1+ …) of 0.02%, an LOEL (short-term, duration: 10 days, oral, diet, M, C57BL/6, spleen: spleen: absolute weight + spleen: spleen: relative weight + spleen: total splenic DNA content + thymus: relative thymic DNA content…) of 0.02% and an NOEL (short-term, duration: 10 days, oral, diet, M, C57BL/6, spleen: spleen: absolute weight + thymocyte cell proliferation: G0/G1 phase 10 days recovery + thymocyte cell proliferation: G1/2 phase 2 …) of 0.02%. It also gave an LOEL [6] of 0.01%, an NOEL [6] of 0.003% and an LOEL [7] of 0.01%. It also gave an NOEL [7] of 0.005%, an NOEL (short-term, duration: 10 days, oral, drinking water, F, C57BL/6, spleen B220+ cells + spleen: spleen CD4+ cells + spleen: spleen CD8+ cells + spleen: spleen cellularity + spleen: spleen DN (CD4-/CD8-) …) of 7.5 mg/kg-day and an NOEL (short-term, duration: 10 days, oral, gavage, F, C57BL/6, IgG antibody titer (SRBC) + spleen: spleen: absolute weight + spleen: spleen: relative weight + thymus: thymus: absolute weight + thymus: …) of 30 mg/kg-day. The LOEL (short-term, duration: 10 days, oral, gavage, F, C57BL/6, IgM antibody titer (SRBC) + spleen: spleen: absolute weight + spleen: spleen: relative weight + thymus: thymus: absolute weight + thymus: …) was 30 mg/kg-day, the NOEL (short-term, duration: 13 days, oral, drinking water, F, C57BL/6, spleen: spleen B220+ cells + spleen: spleen CD4+ cells + spleen: spleen cellularity + spleen: spleen DP (CD4+/CD8+) cells + spleen: spleen …) was 7.5 mg/kg-day and the LOEL [8] was 7.5 mg/kg-day. For the same compound, the NOEL [8] was 3.75 mg/kg-day, the LOEL (short-term, duration: 13 days, oral, drinking water, F, C57BL/6, spleen: spleen DN (CD4-/CD8-) cells) was 3.75 mg/kg-day and the LOEL (short-term, duration: 14 days, oral, gavage, M, BALB/c, change in body weight + spleen: apoptosis in spleen cells + spleen: spleen: relative weight + thymus: thymus: relative weight) was 5 mg/kg-day. The NOEL (short-term, duration: 14 days, oral, gavage, M, BALB/c, relative mRNA expression of IL-1beta in spleen + relative mRNA expression of IL-1beta in thymus) was 20 mg/kg-day, the LOEL [9] was 10 mg/kg-day and the NOEL [9] was 5 mg/kg-day. It also gave an LOEL [10] of 20 mg/kg-day, an NOEL [10] of 10 mg/kg-day and an LOEL (short-term, duration: 14 days, oral, gavage, M, Kunming, COX-2 in liver tissue) of 5 mg/kg-day.
